Experimental data published in the supplement of paper PMC3937590.

Assays:
Assay in all cases: -log10 GI50 (growth inhibition 50%) (-log10(M)); higher = more potent growth inhibition
HCC1419 = test system: HCC1419
Outline: (§1)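 Breast cancer cell lines were exposed to each compound for 72 hours at nine doses in 1:5 serial dilution, in triplicate, with a luminescence read-out against a time-zero plate. A Gompertz curve was fitted to the dose-response data by nonlinear least squares. The value is minus log10 of GI50, the molar concentration giving the set level of growth inhibition. Values equal to the top dose carry a < qualifier.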

S1 = test system: S1
Outline: as §1

MDAMB468 = test system: MDAMB468
Outline: as §1

MCF12A = test system: MCF12A
Outline: as §1

HCC1143 = test system: HCC1143
Outline: as §1

ZR7530 = test system: ZR7530
Outline: as §1

MDAMB453 = test system: MDAMB453
Outline: as §1

HS578T = test system: HS578T
Outline: as §1

HBL100 = test system: HBL100
Outline: as §1

UACC893 = test system: UACC893
Outline: as §1

MDAMB436 = test system: MDAMB436
Outline: as §1

HCC202 = test system: HCC202
Outline: as §1

HCC70 = test system: HCC70
Outline: as §1

T4 = test system: T4
Outline: as §1

HCC38 = test system: HCC38
Outline: as §1

HCC1187 = test system: HCC1187
Outline: as §1

184B5 = test system: 184B5
Outline: as §1

SUM102PT = test system: SUM102PT
Outline: as §1

SMILES	-log10 GI50 (HCC1419)	-log10 GI50 (S1)	-log10 GI50 (MDAMB468)	-log10 GI50 (MCF12A)	-log10 GI50 (HCC1143)	-log10 GI50 (ZR7530)	-log10 GI50 (MDAMB453)	-log10 GI50 (HS578T)	-log10 GI50 (HBL100)	-log10 GI50 (UACC893)	-log10 GI50 (MDAMB436)	-log10 GI50 (HCC202)	-log10 GI50 (HCC70)	-log10 GI50 (T4)	-log10 GI50 (HCC38)	-log10 GI50 (HCC1187)	-log10 GI50 (184B5)	-log10 GI50 (SUM102PT)
CC(=O)Nc1cccc(-n2c(=O)n(C3CC3)c(=O)c3c(Nc4ccc(I)cc4F)n(C)c(=O)c(C)c32)c1	7.23	8.31	4.84	8.68	< 4.78	< 4.78	6.64	7.47	< 4.78	5.77	4.81	6.28	8.18	9	< 4.78	< 4.78		
CC(C)Oc1ccc(C(=O)N[C@H](CNC(=O)CN(C)C)Cc2ccc(-c3cn4cccc([C@H](C)O)c4n3)cc2)cc1Cl	5.72	6.37	7.61	6.1	6.98	7.68		7.32	7.33	7.7	7.92	7.76	7.68	7.2	7.32	7.52	5.17	5.18
CCNCCCNC/C=C\CNCCCNCC	4.85	5.46		< 4	4.05	< 2.3	4.26	4.54	2.94	3.63	3.43	4.75	5.9	4.76	5.26	3.16	3.13	5.98
CCn1cc(-c2ccnc3[nH]c(-c4cccc(CN(C)C)c4)cc23)c(-c2ccc(NC(=O)N(C)C)cc2)n1	5.18	6.36	7.89	5.22	5.52		5.54	6.42	7.15	5.06	7.19	6.03	6.58	6.63	6.53	7.95	6.19	5.52
C[C@@H](Oc1cc(-n2cnc3ccc(CN4CCN(C)CC4)cc32)sc1C(N)=O)c1ccccc1C(F)(F)F	5.13	7.95	8.41	6.14	7.17	5.21	8.02	7.71	8.7	8.15	7.86	8.99	7.78	7.88		7.48	6.69	5.38
O=C1NC(=O)/C(=C/c2ccc3nccc(-c4ccncc4)c3c2)S1	6.59	7.04	6.03	6.38	6.24	6.82	6.52	5.74	5.42	7.24	6.09	7.31	6.75	7.31	6.11	6.84		
C=CCNC1=C2C[C@@H](C)C[C@H](OC)[C@H](O)[C@@H](C)/C=C(\C)[C@H](OC(N)=O)[C@@H](OC)/C=C\C=C(/C)C(=O)NC(=CC1=O)C2=O [17-AAG]	7.41	6.89	5.64	7.48	6.86		7.36	6.96	5.97	7.77	5.96	8.27	6.62		7.24	5.29	7.56	
COc1cc2ncnc(Nc3cccc(Cl)c3)c2cc1OC [AG1478]	5.92	7.25	< 3.78	7.16	< 3.78		< 3.78	4.06	< 3.78	6.39	4.09	5.75	4.21		3.9	< 3.78		
CCc1c2c(nc3ccc(OC(=O)N4CCC(N5CCCCC5)CC4)cc13)-c1cc3c(c(=O)n1C2)COC(=O)[C@]3(O)CC [CPT-11]	4.62	< 4.13	4.49	5.79	4.88	< 4.13	5.19	4.5	5.5	4.22	5.18	4.32	4.97	5.23	6.14	4.35	5.66	
O=C(O)C1(C(=O)O)CCC1.[NH2-].[NH2-].[Pt+2] [Carboplatin]	4.02	4.48	4.32	4.05	3.88	4.55	4.27	4.1	4.15	3.04	4.29	4.44	4.82	4.08	4.76	4.66	5.29	
CC(=O)O[C@@]12CO[C@@H]1C[C@H](O)[C@@]1(C)C(=O)[C@H](O)C3=C(C)[C@@H](OC(=O)[C@H](O)[C@@H](NC(=O)OC(C)(C)C)c4ccccc4)C[C@@](O)([C@@H](OC(=O)c4ccccc4)[C@H]21)C3(C)C [Docetaxel]	7.8	8.33	8.64	8.59	8.06	8.4	8.32	8.76	8.75	7.77	8.07	8.63	8.49	8.77	8.69	8.61	8.39	
COc1cccc2c1C(=O)c1c(O)c3c(c(O)c1C2=O)C[C@@](O)(C(=O)CO)C[C@@H]3O[C@H]1C[C@H](N)[C@H](O)[C@H](C)O1 [Doxorubicin]	6.33	6.09	6.13	7.34	6.6	6.96	6.67	6.31	7.37	6.14	6.29	6.61	5.36	6.9	7.14	7.3		6.61
COc1cccc2c1C(=O)c1c(O)c3c(c(O)c1C2=O)C[C@@](O)(C(=O)CO)C[C@@H]3O[C@H]1C[C@H](N)[C@@H](O)[C@H](C)O1 [Epirubicin]	6.15	6.42	6.15	7.26	6.58		6.66	6.44	6.88	6.11	5.92	6.26	6.35		7.07	6.33	8.25	
O=c1[nH]cc(F)c(=O)[nH]1 [Fluorouracil]	3.77	3.9	3.62	4.82	3.76		4.02	4.34	4.15	3.45	2.97	4.77	3.99		3.72	4.04	< 1.72	
COc1cc2ncnc(Nc3ccc(F)c(Cl)c3)c2cc1OCCCN1CCOCC1 [Gefitinib]	5.5	6.57	4.72	6.17	4.93		5.13	4.76	4.94	5.94	< 4.48	6.45	5.05		4.75	4.53	7.43	5.73
Cc1ccc(NC(=O)c2ccc(CN3CCN(C)CC3)cc2)cc1Nc1nccc(-c2cccnc2)n1 [Imatinib]	4.74			4.37	4.53		4.95	4.1	4.62			5.81	4.77		4.45	4.6	4.63	
CN(Cc1cnc2nc(N)nc(N)c2n1)c1ccc(C(=O)N[C@@H](CCC(=O)O)C(=O)O)cc1 [Methotrexate]	7.24			5.22	7.62		< 3.48	< 3.48	< 3.48			7.69	< 3.48		< 3.48	5.59	7.37	
COc1ccc(C2=N[C@@H](c3ccc(Cl)cc3)[C@@H](c3ccc(Cl)cc3)N2C(=O)N2CCNC(=O)C2)c(OC(C)C)c1 [Nutlin 3a]	< 4.18			5.82	4.67		4.25	< 4.18	4.32			5.02	4.73		4.67	4.78	5.3	
O=C(O)C(=O)O.[NH-][C@@H]1CCCC[C@H]1[NH-].[Pt+2] [Oxaliplatin]		4.68		5.75	4.7	< 3.2	5.19	4.74	5.65	3.83	4.46	5.27	5.38	5.21		5.85	5.57	
CC(=O)O[C@H]1C(=O)[C@@]2(C)[C@H]([C@H](OC(=O)c3ccccc3)[C@]3(O)C[C@H](OC(=O)[C@H](O)[C@@H](NC(=O)c4ccccc4)c4ccccc4)C(C)=C1C3(C)C)[C@]1(OC(C)=O)CO[C@@H]1C[C@@H]2O [Paclitaxel]	7.04	7.84	8.06	7.97	7.8	7.66	7.99	8.38	8.35	7.93	7.65	8.1	8.03	8.04	8.13	8.05	7.74	
CC(C)[C@H](CO)Nc1nc(Nc2cccc(Cl)c2)c2ncn(C(C)C)c2n1 [Purvalanol A]	< 3.78			4.15	< 3.78		< 3.78	< 3.78	4.6			4.02	< 3.78		< 3.78	4.63	5.52	
CO[C@H]1C[C@@H]2CC[C@@H](C)[C@@](O)(O2)C(=O)C(=O)N2CCCC[C@H]2C(=O)O[C@H]([C@H](C)C[C@@H]2CC[C@@H](O)[C@H](OC)C2)CC(=O)[C@H](C)/C=C(\C)[C@@H](O)[C@@H](OC)C(=O)[C@H](C)C[C@H](C)/C=C/C=C/C=C/1C [Rapamycin]	8.36		4.75	7.08	6.27		7.31	4.35	4.24	< 3.78	3.85	8.24	6.92		7.31	7.78	< 4.48	
CCN(CC)CCNC(=O)c1c(C)[nH]c(/C=C2\C(=O)Nc3ccc(F)cc32)c1C [Sunitinib malate]	4.72			5.19	5.16		5.3	5.37	5.34			5.03	5.6		5.24	5.26	5.28	
CC[C@@]1(O)C(=O)OCc2c1cc1n(c2=O)Cc2cc3c(CN(C)C)c(O)ccc3nc2-1 [Topotecan]	6.45	4.63	7.66	7.58	6.58		7.07	4.8	7.87	6.59	7.65	6.08	6.3		8.61	6.51	7.16	6.12
CCC1=C[C@@H]2CN(C1)Cc1c([nH]c3ccccc13)[C@@](C(=O)OC)(c1cc3c(cc1OC)N(C)[C@H]1[C@@](O)(C(=O)OC)[C@H](OC(C)=O)[C@]4(CC)C=CCN5CC[C@]31[C@@H]54)C2 [Vinorelbine]	6.45	8.34	8.01	7.91	6.49		8.8	7.99	8.02	7.96	7.57	7.89	7.66		7.94	7.64		
